According to ChEMBL document CHEMBL6182879, “Synthesis and biological evaluation of novel 4-Arylaminoquinolines derivatives as EGFR/HDAC inhibitors” (Bioorg Med Chem Lett, 2025):

Experiment: Cytotoxicity against human 16-HBE cells by CCK8 assay
Settings: 16hbe14o-

`O=C(CCCCCCC(=O)Nc1ccccc1)NO` [VORINOSTAT] gave an IC50 of 50.6 µM.
